Assay results taken from a compilation of properties of binary mixtures (doi:10.1016/j.fluid.2019.112304).

Experiment: xn = mol fraction of the nth substance listed
Settings: 101 kPa

N#C[C-](C#N)C#N.OCC[n+]1ccccc1 + c1ccsc1
viscosity [mPa·s]
Settings	x1 = 0.4042	x1 = 0.4996	x1 = 0.6	x1 = 0.7041	x1 = 0.8044	x1 = 0.901	x1 = 1
293.15 K	19.9	29.5	40.2	–	67	91.2	–
298.15 K	16.3	23.6	31.8	41.2	51.6	–	97
303.15 K	13.6	–	25.5	32.7	40.1	–	71.8
308.15 K	11.5	15.8	20.7	26.1	31.6	39.6	54.6
313.15 K	10	13.4	17.2	21.2	25.6	31.6	42.3
318.15 K	8.78	11.4	14.4	17.7	–	25.7	34
323.15 K	7.81	9.87	–	14.8	17.6	21.3	27.8
328.15 K	7.01	8.67	10.6	–	14.8	–	22.9
333.15 K	6.15	–	–	10.9	12.8	15.2	19.3
338.15 K	–	–	7.86	–	11.1	13.1	16.4
343.15 K	4.68	–	6.99	8.4	–	11.5	14
348.15 K	4.17	5.12	6.2	7.5	8.89	10.3	12.3
